Experimental data taken from paper PMC6582431 (Chemmedchem, 2018).

Experiments:
FAAH [1] = target: T1, FAAH (Rattus norvegicus, UniProt P97612); experiment: In vitro FAAH activity in rat brain homogenates/membranes; type: biochemical; conditions: 100 nM; rat brain homogenates, 15 min pre-incubation; Table 5
T1 sequence (P97612 1-579): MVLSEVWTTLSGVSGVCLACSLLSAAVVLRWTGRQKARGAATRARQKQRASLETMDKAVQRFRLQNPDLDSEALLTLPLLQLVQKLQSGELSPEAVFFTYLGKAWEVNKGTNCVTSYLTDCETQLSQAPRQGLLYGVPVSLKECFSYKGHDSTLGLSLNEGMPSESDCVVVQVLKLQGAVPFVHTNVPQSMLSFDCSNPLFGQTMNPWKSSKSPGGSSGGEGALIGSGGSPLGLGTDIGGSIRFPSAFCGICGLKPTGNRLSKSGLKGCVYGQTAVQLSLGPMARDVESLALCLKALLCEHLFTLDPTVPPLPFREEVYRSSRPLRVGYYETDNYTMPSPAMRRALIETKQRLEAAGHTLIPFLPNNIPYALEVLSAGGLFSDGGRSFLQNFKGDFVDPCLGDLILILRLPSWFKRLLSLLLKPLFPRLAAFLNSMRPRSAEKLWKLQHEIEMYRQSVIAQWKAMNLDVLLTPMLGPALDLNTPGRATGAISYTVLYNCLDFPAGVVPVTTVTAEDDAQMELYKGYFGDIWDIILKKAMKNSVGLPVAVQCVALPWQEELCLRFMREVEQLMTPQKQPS

FAAH [2] = target: T2, FAAH (Mus musculus, UniProt O08914); experiment: In vivo FAAH inhibition, liver, after oral administration to mice
T2 sequence (O08914 1-579): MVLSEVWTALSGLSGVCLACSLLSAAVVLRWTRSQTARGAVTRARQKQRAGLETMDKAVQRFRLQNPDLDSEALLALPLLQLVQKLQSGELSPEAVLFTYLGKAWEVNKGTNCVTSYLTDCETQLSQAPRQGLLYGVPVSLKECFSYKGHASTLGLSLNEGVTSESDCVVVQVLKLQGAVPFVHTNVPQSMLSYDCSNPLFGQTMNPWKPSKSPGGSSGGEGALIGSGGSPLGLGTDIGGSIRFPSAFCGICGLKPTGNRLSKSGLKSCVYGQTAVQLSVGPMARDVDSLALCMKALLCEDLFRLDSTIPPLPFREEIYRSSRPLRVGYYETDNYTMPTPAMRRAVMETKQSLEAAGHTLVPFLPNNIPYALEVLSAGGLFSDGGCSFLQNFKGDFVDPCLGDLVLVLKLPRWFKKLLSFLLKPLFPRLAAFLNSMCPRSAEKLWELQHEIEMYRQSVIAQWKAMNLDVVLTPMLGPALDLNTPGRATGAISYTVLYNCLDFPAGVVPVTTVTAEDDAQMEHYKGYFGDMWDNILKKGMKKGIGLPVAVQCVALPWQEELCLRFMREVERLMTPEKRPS

carboxylesterases (CEs) = experiment: CE activity in rat liver microsomes; type: biochemical; conditions: 10 μM in rat liver microsomes; Table 5
MAGL = target: T3, MAGL (Rattus norvegicus, UniProt Q8R431); experiment: MAGL activity in rat cerebellum cytosol; type: biochemical; conditions: C inhib=100 μM in rat cerebellum cytosol; Table 5
T3 sequence (Q8R431 1-303): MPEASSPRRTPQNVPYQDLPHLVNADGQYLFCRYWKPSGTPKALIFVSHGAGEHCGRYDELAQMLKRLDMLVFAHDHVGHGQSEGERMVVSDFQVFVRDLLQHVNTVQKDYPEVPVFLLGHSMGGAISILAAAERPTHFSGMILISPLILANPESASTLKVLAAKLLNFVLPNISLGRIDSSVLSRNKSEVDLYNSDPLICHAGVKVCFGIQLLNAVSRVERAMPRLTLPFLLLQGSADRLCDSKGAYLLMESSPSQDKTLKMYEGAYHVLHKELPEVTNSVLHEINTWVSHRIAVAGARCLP

[3] = CYP450 metabolic stability, mouse liver microsomes; type: in vitro ADME; conditions: 5 μM in liver microsomes, 1 h incubation
[4] = CYP450 metabolic stability, rat liver microsomes; type: in vitro ADME; conditions: 5 μM in liver microsomes, 1 h incubation
[5] = CYP450 metabolic stability, dog liver microsomes; type: in vitro ADME; conditions: 5 μM in liver microsomes, 1 h incubation
[6] = CYP450 metabolic stability, primate liver microsomes; type: in vitro ADME; conditions: 5 μM in liver microsomes, 1 h incubation
[7] = CYP450 metabolic stability, human liver microsomes; type: in vitro ADME; conditions: 5 μM in liver microsomes, 1 h incubation
[8] = multiple ascending doses up to 20 mg; cited from earlier work
FAAH [9] = target: T2, FAAH; experiment: In vivo FAAH inhibition, brain, after oral administration to mice
[10] = 0.1 mg kg^−1, mouse, p.o., text b31
[11] = 0.1 mg kg^−1 p.o. in mice, 8 h after administration, Table 5
[12] = 0.1 mg kg^−1 p.o., mice, post-dose

Structure (SMILES): CN(C(=O)n1cnc(-c2ccc[n+]([O-])c2)c1)C1CCCCC1 [Compound 8 l, 3‐(1‐(Cyclohexyl(methyl)carbamoyl)‐1H‐imidazol‐4‐yl)pyridine 1‐oxide]
- FAAH activity, percent of control, 100 nM (FAAH [1]): 85±11% of control
- in vivo FAAH inhibitory activity, liver (FAAH [2]; [10]): > 90 % of control
- Liver FAAH activity, percent of control (FAAH [2]; [11]): 6±2% of control
- time of maximum inhibitory effect in the liver (FAAH [2]; [12]): 1 h
- ED50 (FAAH [2]; mouse, po, 8 h, read-out: ED50 liver FAAH): 7 µg/kg
- inhibition at 0.1 mg/kg (FAAH [2]; mouse, po, read-out: peripheral inhibition of FAAH sustained over the next 7 h): > 90%
- CEs (10 μM), percent of control (carboxylesterases (CEs)): 102±5% of control
- MAGL (100 μM), percent of control (MAGL): 96±4% of control
- CYP450 metabolic stability, Mouse, percent of remaining [3]: 99±2% of remaining
- CYP450 metabolic stability, Rat, percent of remaining [4]: 91±1% of remaining
- CYP450 metabolic stability, Dog, percent of remaining [5]: 94±2% of remaining
- CYP450 metabolic stability, Primate, percent of remaining [6]: 88±1% of remaining
- CYP450 metabolic stability, Human, percent of remaining [7]: 95±1% of remaining
- systemic exposure to anandamide [8]: increased in a dose‐dependent manner
- in vivo FAAH inhibitory activity, brain (FAAH [9]; [10]): > 90 % of control
- Brain FAAH activity, percent of control (FAAH [9]; [11]): 8±2% of control
- maximal inhibitory effect in the brain (FAAH [9]; 0.1 mg kg^−1 p.o., mice, at 8 h post-dose): > 90%
- time of maximal inhibitory effect in the brain (t max) (FAAH [9]; [12]): 8 h
- central FAAH inhibition maintained up to 48 h post-administration (FAAH [9]; 0.1 mg kg^−1 p.o., mice, up to 48 h): > 50%
- ED50 cerebral FAAH (FAAH [9]; mice, p.o., 0.001 to 3 mg kg^−1, 8 h post-administration): ~27 µg/kg
